Assay results reported in a melting point compilation (Tetko et al.; mined from patent text by program, amines drawn as free bases though some values may be those of a salt).

With COc1cc(C)nc(NCSc2ccc(Cl)cc2)n1 the melting point was 78 to 82 °C.
CCOc1ccc(NC(=O)NCCCOc2cccc(CN3CCCCC3)c2)cc1 gave a melting point of 109 to 111 °C.
With COc1cc(C(=O)NS(=O)(=O)c2ccccc2C)ccc1Cc1c(Cl)n(C)c2cc(Cl)c(CC(C)NC(=O)N(C)C)cc12 (centres undefined) the melting point was 136 to 146 °C.
In the case of Cn1cncc1C(O)(c1ccc2c(c1)c(-c1cccc(Cl)c1)cc(=O)n2C)c1nccs1 (centres undefined), the melting point is reported as 246 °C.
Work on CCOC(=O)c1cc2c(C=O)cc3c4ccccc4ccc3c2s1 yielded a melting point of 196 to 197 °C.
Work on OC1(CNc2c(Br)cnc3cc(Cl)ccc23)CCCCC1 yielded a melting point of 151 to 154 °C.
Compound O=C1CCC2=C(c3ccccc3)c3cc(Cl)ccc3C2N1 (centres undefined) has a melting point of 234 to 238 °C.
CCN(CC)CCOc1ccc(Oc2ccc(S(C)(=O)=O)cc2)cc1 gave a melting point of 92.5 to 94 °C.
CCN1C(=O)C(C)(C)C(=O)N(C)c2cc(CN(CCn3ccc4oc(C)cc4c3=O)Cc3cccnc3C=O)ccc21 showed a melting point of 147 to 149 °C.
OCc1csc(N2CCCCC2)n1 showed a melting point of 89 to 90 °C.
Work on Cc1on(C(=O)N(c2ccc(Cl)cc2)C(C)C)c(=O)c1Cl yielded a melting point of 136 to 137 °C.
CC(=O)NCC(=O)NCC1(SCc2ccccc2)C2CC3CC(C2)CC1C3 (centres undefined) showed a melting point of 132 to 134 °C.
COc1cc(C)nc(NC(=O)NS(=O)(=O)c2ccccc2N=NN(C)C)n1 showed a melting point of 158 to 160 °C.
Work on CN1CCOc2cccc3nc4c(c1c23)CCCC4 yielded a melting point of 97 to 98 °C.
With COc1ccc(Cc2cc3c(cc2OC)OCO3)cc1 the melting point was 56 to 57 °C.
With Nc1cc(C(O)=S)cc(SCc2ccccc2)c1-c1ccccc1 the melting point was 170 to 172 °C.
COCCNc1nc(-n2ccnc2)nc2ccc(C(=O)OC)cc12 showed a melting point of 252 to 253 °C.
Work on C1=C(c2nc(COc3ccc(CCCCn4cncn4)cc3)co2)CCc2ccccc21 yielded a melting point of 96 to 97 °C.
Compound O=C(O)c1cc2cc(Cl)ccc2nc1NC1(C(=O)O)CCc2ccccc21 (centres undefined) has a melting point of 141 to 144 °C.
CCOC(=O)c1c(C)cc(OCc2cccc(OCc3ccc4ccccc4n3)c2)cc1O showed a melting point of 127 to 128 °C.
With CCNc1cncc(S(=O)(=O)N(CC)CC)c1 the melting point was 58 to 60 °C.
In the case of O=C1OC(=O)c2c(-c3ccccc3)c3ccccc3c3cccc1c23, the melting point is reported as 158 to 161 °C.
CCCCCCCCCCCCC1=C(OC)C(=O)c2ccccc2C1=O showed a melting point of 61 to 63 °C.
In the case of CC(C)(CNC(=O)c1ccccc1-c1ccccc1C(=O)O)SN=O, the melting point is reported as 121 to 123 °C.
Compound CCOC(=O)c1cnc(SC)nc1NC(C)C has a melting point of 159 to 160 °C.
O=CNCc1ncc(-c2ccccc2)o1 showed a melting point of 225 to 228 °C.
With CCC1N=C(c2ccccc2Cl)c2cc(CC(=O)OC)sc2NC1=O (centres undefined) the melting point was 202 to 204 °C.
Compound C=CCOc1ccc(CC(=O)O)cc1 has a melting point of 61 to 62 °C.
CCOC(=O)c1cc2c3n(ccc-2n1)CC(C(C)(C)C)=N3 showed a melting point of 276 to 278 °C.
CCOc1ccc(-c2nc(CCC(=O)c3ncccc3OC)cs2)cc1OCC showed a melting point of 79.2 to 79.7 °C.
Compound CC[C@H](C)[C@H](OCc1cc(F)cc(F)c1)[C@H]1[C@H]([N+](=O)[O-])[C@H](c2ccccc2)N[C@@H]1C(=O)NCC(=O)O has a melting point of 140 to 141 °C.
For Nc1nc(C(=O)N2CCN(Cc3ccc4c(c3)OCO4)CC2)c(-c2ccncc2)s1, the melting point was 216 to 217 °C.
CCCn1c(=O)[nH]c2cc(Cl)cc(Cl)c2c1=O showed a melting point of 223 to 234 °C.
CC1CCCN(c2cc3nc(C(C)(C)C)sc3cc2N)C1 (centres undefined) gave a melting point of 108 to 112 °C.
Compound COC(=O)c1cc2ccccc2n1C1=CC(C)(C)Oc2ccc(C#N)cc21 has a melting point of 197 to 200 °C.
With CCOC(=O)CCCNC(=O)c1cc(Br)no1 the melting point was 72 to 73 °C.
NC(=O)c1csnc1-c1cccc(C(F)(F)F)c1 showed a melting point of 141 to 142 °C.
Compound Cc1ccc(NC(=O)c2ccc(C3OCC(SC(C)C(O)(Cn4cncn4)c4ccc(F)cc4F)CO3)cc2)cc1 (centres undefined) has a melting point of 101 °C.
For CC(C)NC1=NS(=O)(=O)c2ccc(CC(N)=O)cc2N1, the melting point was 321 to 325 °C.
In the case of N=C(NCl)c1ccsc1, the melting point is reported as 96 to 98 °C.
CCOC(=O)c1cnc2c(OC)cccc2c1Nc1cscc1OC gave a melting point of 176 to 178 °C.
In the case of Cn1nc2ccc(S)nn2c1=O, the melting point is reported as greater than 280 °C.
For CSc1nnc(-c2ccc3occ(-c4cccc(OC(F)(F)F)c4)c3c2)o1, the melting point was 113 to 114 °C.
With O=C(NCc1cccs1)[C@@H]1CCCN(c2cccc3c2C(=O)N(Cc2ccncc2)C3=O)C1 the melting point was 193 to 194 °C.
Work on CCCCCCCCCCNC(=O)CC#N yielded a melting point of 78.5 to 80 °C.
For N#Cc1ccc(OCCCOc2ccc(-c3cc4ccc(C#N)cc4o3)cc2)cc1, the melting point was 208 to 210 °C.
For COc1ccc(I)c(OCC(O)CNCCc2ccc(OC)c(OC)c2)c1 (centres undefined), the melting point was 83 to 88 °C.
C=CCc1c(OCOC)cc(OCOC)c(C(=O)C=Cc2ccc(OCOC)cc2)c1O gave a melting point of 68 to 69 °C.
CCOC(=O)c1ccc(NC(=O)CCc2ccc(OC)cc2)cc1 showed a melting point of 134 to 136 °C.
Compound O=C(c1ccccc1O)c1ccc(O)c(Cl)c1Cl has a melting point of 200 to 202 °C.
Work on COc1ccc(CC(OC)C(=O)O)cc1NC(=O)Cc1ccc(C(F)(F)F)cc1 (centres undefined) yielded a melting point of 124 to 125 °C.
Work on COc1ccc(C(=O)/C=C/c2ncn(C(c3ccccc3)(c3ccccc3)c3ccccc3)c2C)c2ccccc12 yielded a melting point of 235 to 237 °C.
Work on CC(C)(C)c1ccc(-c2ccc(F)cc2)n1CC[C@H]1C[C@H](O)CC(=O)O1 (relative stereo) yielded a melting point of 177 to 178 °C.
COc1ccc(/C=C/C2=NS(=O)(=O)c3ccccc3N2)cc1OC gave a melting point of 276 to 279 °C.
In the case of COc1c(OCCCCCC(=O)N(CCO)C2CCCCC2)ccc2c1CN1CC(=O)NC1=N2, the melting point is reported as 208 to 209 °C.
COCN1C(C)=NC(C)=C(C(=O)NCCCN2CCC(C(=O)OC)(c3ccccc3)CC2)C1c1ccc(F)c(F)c1 (centres undefined) showed a melting point of 53 to 57 °C.
In the case of CC(C)(C)OC(=O)[C@@H]1CSC(Cc2ccccc2)N1C(=O)CNC(=O)Nc1cccc(CC(=O)O)c1 (some centres undefined), the melting point is reported as 110 °C.
CN(C)c1cc(C(=O)CS(C)(=O)=O)cc(N(C)C)c1C(C)(C)C gave a melting point of 177 to 179 °C.
For OCCc1ccc(-c2ccc(Cl)cc2)cc1, the melting point was 113 to 115 °C.
Compound CC(C)(C)C1CCC(C(=O)Nc2ccncc2)CC1 (centres undefined) has a melting point of 150 to 151 °C.
In the case of CCCc1nc2c(C)ccnc2n1Cc1ccc(-c2ccccc2-c2nnn[nH]2)cc1, the melting point is reported as 200 to 202 °C.
For CCCCCC(CC(=O)Nc1cc(C(N)=O)ccc1C(C)(C)C)c1ccc(OCCCNS(C)(=O)=O)cc1OC (centres undefined), the melting point was 77 to 79 °C.
C(=Cc1ccccc1)CN1CCN(C2c3ccccc3Sc3ccccc32)CC1 gave a melting point of 115 to 117 °C.
In the case of CC#Cc1ncn2c1CN(C)C(=O)c1c(Cl)cccc1-2, the melting point is reported as 243 to 244 °C.
Work on CCCc1cn(C)cc(-c2cccc(C(F)(F)F)c2)c1=S yielded a melting point of 145 to 148 °C.
CC(C)(C)c1ccc(Sc2ccc(Br)cc2)cc1 gave a melting point of 39 to 46 °C.
CC(=Cc1ccc(C)cc1)COc1cc(C)c(NC=O)c(C)c1C showed a melting point of 167 to 169 °C.
O=C1C(=O)N(Cc2ccc(C(F)(F)F)o2)c2cccc(Cl)c21 gave a melting point of 148 to 150 °C.
For OC1(C#Cc2ccccc2Cc2ccccc2)CN2CCC1CC2 (centres undefined), the melting point was 156 to 157 °C.
COC(=O)c1snc(-c2ccc(Cl)c(Cl)c2)c1C(=O)OC showed a melting point of 105 to 107 °C.
In the case of Cc1cnc(C)n2c1c(CCN1CCC(NC(=O)c3ccccc3)CC1)c1ccccc12, the melting point is reported as 233 to 234 °C.
CN(C)CCCNC(=O)c1ccccc1-c1cc2cc(Cl)c(Cl)cc2[nH]1 showed a melting point of 169 °C.
CCC(=O)c1cc(O)cc2cc(-c3ccc(O)cc3)oc12 showed a melting point of 257 to 260 °C.
Compound COC(=O)C(=O)c1ccc(SCCOc2ccc3ccccc3c2)cc1 has a melting point of 124 to 125 °C.
For CCOc1c(OC)cccc1-c1nc2ccc(C(=O)O)cc2c(=O)[nH]1, the melting point was 168 to 169 °C.
Compound FC(F)(F)Oc1ccc(C2CCC3(CC2)OCCO3)cc1 has a melting point of 41.2 °C.
Compound COc1cc2c(cc1OC)CN(CCc1ccc(N)cc1)CC2 has a melting point of 120 °C.
Work on ICCCCCOc1ccc(C2=C(c3ccccc3)CCCc3ccccc32)cc1 yielded a melting point of 104 to 106 °C.
In the case of CCOC(=O)CN(CC(=O)OCC)c1ccc(C=O)c(O)c1, the melting point is reported as 190 °C.
CCCOc1ccc(-c2scc(-c3ccccc3Cl)c2CC(=O)NC(=N)NCCCO)c(C)c1 gave a melting point of 103 to 106 °C.
Work on Cc1cccc(-c2nc(-c3ccc(S(C)(=O)=O)cc3)sc2-c2ccnc(S(=O)(=O)c3ccccc3)c2)c1 yielded a melting point of 126 to 128 °C.
Work on O=C(c1cc(Cl)cc(Cl)c1)N1CCc2cc(S(=O)(=O)N3CC(c4ccccc4)NC3=O)ccc21 (centres undefined) yielded a melting point of 236 °C.
Compound CC(=NOc1ccc(F)cc1)c1cc(Cl)ccc1NS(=O)(=O)C(F)(F)F has a melting point of 71 to 73 °C.
CCCCCCCCCCCC(=O)c1c[nH]c2cc(C(=O)OC)ccc12 gave a melting point of 167 to 169 °C.
CCCCC(=O)Nc1ccc(C(F)(F)F)c(-n2nc(CCCC)n(Cc3ccc(-c4ccccc4S(=O)(=O)NC(=O)OC(C)(C)C)cc3F)c2=O)c1 showed a melting point of 179 to 182 °C.
Work on COC(=O)c1ccc(Oc2ccc3c(c2)CCN(C2CCN(C4CCC4)CC2)C3=O)cc1 yielded a melting point of 269 to 270 °C.
In the case of CCCCCCCCCCCCn1nnc(C(=NOC)C(=O)Nc2c(OC)cc(OC)cc2OC)n1, the melting point is reported as 84 to 85 °C.
Compound CCN(CC)C(=O)n1cnc(Sc2cc(F)c(C#N)cc2F)n1 has a melting point of 80 °C.
With Cc1cnc2n(c1=O)C(C)CCC2=NNc1ccccc1 (centres undefined) the melting point was 165 to 166 °C.
Compound c1c(NC2CCCC2)nc(NC2CCCC2)nc1N1CCNCC1 has a melting point of 142 to 148 °C.
In the case of COCCOCOc1ccc(-c2nnc(S)o2)cc1OCOCCOC, the melting point is reported as 84 °C.
For CCC(C)(N=NC(C)(CC)NC(=O)NC1CCCCC1)NC(=O)NC1CCCCC1 (centres undefined), the melting point was 110 to 113 °C.
Work on CCOCn1c(Br)c(Br)c(S(=O)(=O)C(F)(F)F)c1-c1ccc(Cl)cc1 yielded a melting point of 133 to 135 °C.
CN(C)C=Nc1sc(C=O)c(S(=O)(=O)c2ccccc2)c1C#N showed a melting point of 262 °C.
Compound CCCN1CC(c2ccc(S(C)(=O)=O)cc2)=C(Oc2ccccc2)C1=O has a melting point of 163 to 165 °C.
For COc1ccc(/C=C/C(=O)N(C)CC(O)CO)cc1 (centres undefined), the melting point was 81 to 83 °C.
In the case of O=c1c2c(N3CCNCC3)cc(Cl)cc2n(Cc2ccccc2)c(=O)n1Cc1ccccc1, the melting point is reported as 115 to 123 °C.
O=C1NC(=O)C(=Cc2cc(O)c(O)c([N+](=O)[O-])c2)S1 showed a melting point of 295 to 298 °C.
With O=[N+]([O-])c1cn2c(n1)OC[C@@H](OCc1ccc(-c3nc4cc(OC(F)(F)F)ccc4[nH]3)cc1)C2 the melting point was 98 to 99 °C.
